According to patent publication US4977141A, “Peptidyl α-aminoacyl aminodiol carbamates as anti-hypertensive agents” (G. D. Searle & Co., priority 1987, dated 1990):
One block for each compound: values may come before it. Square brackets hold non-standard residues; d marks the D form. Peptide text beside a SMILES is read from it. * marks the point of attachment. Sta = CC(C)C[C@H](N)[C@@H](O)CC(=O)O; Isovaleryl = CC(C)CC(=O)*

Columns and labels:
human renin = target: T1, human renin (Homo sapiens, UniProt P00797); test: human renin inhibition in vitro assay; type: biochemical; conditions: pH 7.4, 37° C., two hours, human plasma substrate
T1 construct: purchased National Institute for Biological Standards, London
T1 sequence (P00797 67-406): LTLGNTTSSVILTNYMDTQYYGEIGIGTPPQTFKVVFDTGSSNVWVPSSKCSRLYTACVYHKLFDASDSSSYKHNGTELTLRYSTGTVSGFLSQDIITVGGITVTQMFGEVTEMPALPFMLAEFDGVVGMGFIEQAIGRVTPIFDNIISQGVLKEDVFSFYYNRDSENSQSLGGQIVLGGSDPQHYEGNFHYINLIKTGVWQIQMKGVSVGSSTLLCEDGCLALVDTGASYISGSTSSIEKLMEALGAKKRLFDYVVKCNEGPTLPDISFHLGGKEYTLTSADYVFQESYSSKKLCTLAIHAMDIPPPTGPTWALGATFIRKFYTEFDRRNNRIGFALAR
Experimental: Compounds of Formula I were evaluated as inhibitors of human renin in an in vitro assay, as follows: This human renin inhibition test has been previously described in detail [Papaioannou, et. al., Clinical and Experimental Hypertension, A7(9), 1243-1257 (1985)]. Human renin was obtained from the National Institute for Biological Standards, London. In a total volume of 0.25 mL 100 mM Tris-acetate buffer at PH 7.4, 25×10^-6 Goldblatt units of renin, 0.05 mL of plasma from human volunteers taking oral contraceptives, 6.0 mM sodium EDTA, 2.4 mM phenylmethyl sulfonyl fluoride, 1.5 mM 8-hydroxyquinoline, 0.4 mg/mL BSA, and 0.024 mg/mL neomycin sulfate were incubated for two hours at 37° C. in the presence or absence of renin inhibitors. The produced angiotensin I was determined by radioimmunoassay (New England Nuclear kit). Dipeptide glycols to be assayed were solubilized in either ethyl alcohol or DMSO and diluted with 100 mM Tris-acetate buffer at pH 7.4 to the appropriate concentration. The final concentration of organic solvent in the reaction mixture was less than 1%. Control incubations at 37° C. were used to correct for effects of organic solvent on renin activity.

[1] = system: plasma renin activity (PRA); test: plasma renin activity (PRA) reduction in Rhesus monkeys, intravenous; conditions: Macaca mulatta, 0.25 h, furosemide pre-treated Rhesus monkeys, dose reducing PRA to 50% of pretreatment control, read-out: Rhesus (in vivo) PRA Reduction ED50
Experimental: The effect of inhibitor on plasma renin activity (PRA) in Rhesus monkeys was determined as follows: Rhesus monkeys were pre-treated with furosemide (0.2 mg/kg; i.m.) followed by another equal does 6 hours later. Then, 24 hours after the first treatment, the animals were chaired and blood samples collected for pre-treatment controls; immediately thereafter dosing with drug was started. The compounds were administered intravenously every 30 min and blood samples were collected 15 min after each administration. PRA was determined by the method of Sealey and Laragh Cardiovascular Med. 2, 1079-1092 (1977), and the concentration of angiotensin I produced was determined by radioimmunoassay.

hog renin = target: T2, hog renin (Sus scrofa, UniProt A0A287APG1); test: hog renin inhibition assay; type: biochemical; conditions: pH 7.4, 37° C., one hour, synthetic tetradecapeptide substrate
T2 construct: purchased Sigma Chemical Co
T2 sequence (A0A287APG1 24-407): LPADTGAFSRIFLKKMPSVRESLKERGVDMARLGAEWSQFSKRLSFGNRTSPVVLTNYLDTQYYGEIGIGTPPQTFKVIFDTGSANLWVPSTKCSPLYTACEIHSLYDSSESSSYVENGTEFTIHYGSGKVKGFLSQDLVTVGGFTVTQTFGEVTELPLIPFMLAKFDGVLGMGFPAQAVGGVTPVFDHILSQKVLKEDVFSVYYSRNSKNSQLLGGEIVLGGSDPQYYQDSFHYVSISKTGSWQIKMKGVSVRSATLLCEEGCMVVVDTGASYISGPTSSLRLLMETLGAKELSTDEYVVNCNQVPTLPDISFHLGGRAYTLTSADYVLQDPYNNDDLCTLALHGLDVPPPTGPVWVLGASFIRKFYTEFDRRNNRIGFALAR
Experimental: The hog renin inhibition assay was conducted in a manner similar to the human resin assay, with the following modification: Hog renin was purchased from Sigma Chemical Co. and the synthetic tetradecapeptide substrate was obtained from peninsula Labs Inc. In a final volume of 0.25 mL 100 mM Tris-acetate buffer at pH 7.4, 0.125 m units hog renin, 20 micromolar tetradecapeptide, 6 mM disodium EDTA, 3.2 mM phenylmethyl sulfonyl fluoride, 3 mM 8-hydroxyquinoline, 1.2 mg/mL BSA and 0.024 mg/mL neomycin sulfate were incubated for one hour at 37° C. in the presence or absence of renin inhibitors. The amount of angiotensin I produced was determined as for the human renin inhibition assay.

Plasma Renin Activity = Plasma Renin Activity of Sodium-Depleted Marmoset, oral activity; type: in vivo, Common marmosets (Callithrix jacchus); conditions: 20 mg/kg IG
Experimental: The oral activity of compounds of Formula I was determined in vivo in Marmoset monkeys in accordance with the following procedure: Common marmosets (Callithrix jacchus, Charles River) were placed on a modified high protein low sodium diet (Purina, St. Louis, Mo.) for 1 to 2 weeks. On the day of the test an animal was anesthetized with isoflurane and cannulated in the femoral artery and vein for blood pressure monitoring, intravenous saralasin infusion and blood sampling. After allowing the animal to recover from surgery for 2 hr, saralasin was infused at 1 microgram/min for 15 minutes to confirm that the animal's blood pressure was dependent on angiotensin II levels. The marmoset was allowed to stabilize for 30 min after the saralasin infusion. The test compound was administered orally and blood pressure was monitored for 2 hr. Blood samples were taken in K-EDTA for plasma renin activity before, 30 min, and 1 hr after compound administration.

[2] = system: aspartyl proteases such as pepsin, cathepsin D and renin; conditions: cited from earlier work
blood pressure = conditions: after the injection of hog renin into nephrectomized rats; cited from earlier work

- IC50 (human renin): 70 nM
- IC50 (hog renin): 160 nM
Compound: CC(C)C[C@H](NC(=O)[C@H](Cc1ccccc1)OC(=O)N1CCOCC1)C(=O)N[C@@H](CC1CCCCC1)[C@@H](O)[C@@H](O)CC(C)C [Example 6, O-(N-morpholinocarbonyl)-3-L-phenyllactyl-L-leucinamide of (2S,3R,4S)-2-amino-1-cyclohexyl-3,4-dihydroxy-6-methylheptane]
- ED50 [1]: 0.012 mg/kg
- Plasma Renin Activity (Plasma Renin Activity; 30 min, Animal No. 206): 2.2 ng AI/ml/hr
- Plasma Renin Activity (Plasma Renin Activity; 30 min, Animal No. 207): 0.2 ng AI/ml/hr
- Plasma Renin Activity (Plasma Renin Activity; 30 min, Animal No. 208): 1.0 ng AI/ml/hr
- Plasma Renin Activity (Plasma Renin Activity; 60 min, Animal No. 206): 0.6 ng AI/ml/hr
- Plasma Renin Activity (Plasma Renin Activity; 60 min, Animal No. 207): 0.9 ng AI/ml/hr
- Plasma Renin Activity (Plasma Renin Activity; 60 min, Animal No. 208): 2.0 ng AI/ml/hr
- Plasma Renin Activity (Plasma Renin Activity; Pretreatment, Animal No. 206): 16.3 ng AI/ml/hr
- Plasma Renin Activity (Plasma Renin Activity; Pretreatment, Animal No. 207): 16.4 ng AI/ml/hr
- Plasma Renin Activity (Plasma Renin Activity; Pretreatment, Animal No. 208): 15.7 ng AI/ml/hr

- IC50 (human renin): 100 nM
- IC50 (hog renin): 6600 nM
Compound: CC(C)C[C@H](NC(=O)[C@H](Cc1ccccc1)OC(=O)N1CCOCC1)C(=O)N[C@@H](CC1CCCCC1)[C@@H](O)[C@H](C)O [Example 9, O-(N-morpholinocarbonyl)-3-L-phenyllactyl-L-leucinamide of (2S,3R,4S)-2-amino-1-cyclohexyl-3,4-dihydroxypentane]

- IC50 (human renin): 490 nM
- IC50 (hog renin): 7200 nM
Compound: CC(C)C[C@H](NC(=O)[C@H](Cc1ccccc1)OC(=O)N1CCOCC1)C(=O)N[C@@H](CC1CCCCC1)[C@@H](O)CO [Example 11, O-(N-morpholinocarbonyl)-3-L-phenyllactyl-L-leucinamide of (2S, 3R)-2-amino-1-cyclohexyl-3,4-dihydroxybutane]
- ED50 [1]: 1.6 mg/kg
- Plasma Renin Activity (Plasma Renin Activity; 30 min, Animal No. 205): 0.6 ng AI/ml/hr
- Plasma Renin Activity (Plasma Renin Activity; 30 min, Animal No. 209): 1.1 ng AI/ml/hr
- Plasma Renin Activity (Plasma Renin Activity; 30 min, Animal No. 221): 48.5 ng AI/ml/hr
- Plasma Renin Activity (Plasma Renin Activity; 60 min, Animal No. 205): 4.5 ng AI/ml/hr
- Plasma Renin Activity (Plasma Renin Activity; 60 min, Animal No. 209): 0.0 ng AI/ml/hr
- Plasma Renin Activity (Plasma Renin Activity; 60 min, Animal No. 221): 24.9 ng AI/ml/hr
- Plasma Renin Activity (Plasma Renin Activity; Pretreatment, Animal No. 205): 17.5 ng AI/ml/hr
- Plasma Renin Activity (Plasma Renin Activity; Pretreatment, Animal No. 209): 39.3 ng AI/ml/hr
- Plasma Renin Activity (Plasma Renin Activity; Pretreatment, Animal No. 221): 37.6 ng AI/ml/hr

Compound: CC(C)CC(=O)N[C@H](C(=O)N[C@H](C(=O)N[C@@H](CC(C)C)[C@@H](O)CC(=O)N[C@@H](C)C(=O)N[C@@H](CC(C)C)[C@@H](O)CC(=O)O)C(C)C)C(C)C [pepstatin] (Isovaleryl-VV[Sta]A[Sta]-OH)
- inhibition of aspartyl proteases [2]: inhibitor of aspartyl proteases
- blood pressure reduction in vivo (blood pressure): reduce blood pressure in vivo
